In article PMC7663372, “Brain Distribution of Dual ABCB1/ABCG2 Substrates Is Unaltered in a Beta-Amyloidosis Mouse Model” (International Journal of Molecular Sciences, 2020):
Read-outs that look alike come from different tables or passages of the source.

Key:
ABCB1 [1] = details: cited from earlier work
ABCB1 [2] = tested on: ABCB1; set-up: method as in PMID 26940368; details: read-out: IC50 for in vitro inhibition of its own transport by ABCB1; cited from earlier work
ABCG2 = tested on: ABCG2; set-up: method as in PMID 26940368; details: read-out: IC50 for in vitro inhibition of its own transport by ABCG2; cited from earlier work
ABCB1 at the BBB = details: cited from earlier work
ABCB1 [3] = details: cited from earlier work; remark: listed apart in the source
ABCG2 at the mouse BBB [4] = target: T1, ABCG2 at the mouse BBB (Mus musculus, UniProt Q7TMS5); details: for percentage increase in Kp,brain following ABCG2 inhibition: Ko143 5 mg/kg vs vehicle, tariquidar 12 mg/kg, hippocampus, cortex; for change in Kp,brain after partial ABCG2 inhibition: Ko143 5 mg/kg
T1 sequence (Q7TMS5 1-657): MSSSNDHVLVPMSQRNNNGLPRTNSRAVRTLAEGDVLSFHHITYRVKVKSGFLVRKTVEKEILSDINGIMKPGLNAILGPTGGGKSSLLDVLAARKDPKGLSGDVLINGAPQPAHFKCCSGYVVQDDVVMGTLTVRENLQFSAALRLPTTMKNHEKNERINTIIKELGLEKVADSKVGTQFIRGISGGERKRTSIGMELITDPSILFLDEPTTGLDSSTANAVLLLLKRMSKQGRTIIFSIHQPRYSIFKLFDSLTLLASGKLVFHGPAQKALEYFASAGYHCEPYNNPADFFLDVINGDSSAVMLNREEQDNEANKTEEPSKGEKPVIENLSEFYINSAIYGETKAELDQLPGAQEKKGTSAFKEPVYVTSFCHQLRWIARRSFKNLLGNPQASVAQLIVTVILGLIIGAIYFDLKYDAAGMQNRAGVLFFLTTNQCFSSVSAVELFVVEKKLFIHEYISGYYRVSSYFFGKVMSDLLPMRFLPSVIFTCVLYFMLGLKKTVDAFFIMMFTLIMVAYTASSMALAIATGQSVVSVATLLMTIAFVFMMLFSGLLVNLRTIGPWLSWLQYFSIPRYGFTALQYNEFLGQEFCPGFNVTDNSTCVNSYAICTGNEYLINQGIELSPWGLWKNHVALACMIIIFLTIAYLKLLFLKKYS

ABCG2 at the mouse BBB [5] = target: T1, ABCG2 at the mouse BBB; set-up: Two PET imaging approaches for assessing the activity of ABCG2 at the mouse BBB were performed; from tissue; host or cells: blood-brain barrier (brain capillary endothelium) of living female APP/PS1-21 and wild-type C57BL/6J mice; method as in PMID 22828996; details: Abcb1a/b(-/-) mice pretreated with 15 mg/kg Ko143; cited from earlier work

In the case of `Cc1nc2n(c(=O)c1CCN1CCC(c3noc4cc(F)ccc34)CC1)CCCC2O` (stereo not drawn) [paliperidone], the “difference in Kp,uu,brain between tg-APPArcSwe and age-matched control mice” value (ABCB1 [1]) is listed as “no differences”.
For `COc1cc2c(cc1OC)CN(CCc1ccc(NC(=O)c3cc(OC)c(OC)cc3NC(=O)c3cnc4ccccc4c3)cc1)CC2` [tariquidar], the IC50 (ABCB1 [2]) is given as 17.1 nM and the IC50 (ABCG2) is given as 310 nM.
In the case of `CNC(=O)C(CCN1CCC(O)(c2ccc(Cl)cc2)CC1)(c1ccccc1)c1ccccc1` [[^11C]N-desmethyl-loperamide], the “increase in brain distribution relative to wild-type mice” value (ABCB1 at the BBB; heterozygous Abcb1a/b(+/-) knockout mice) is listed as 1.1 fold and the “increase in brain distribution relative to wild-type mice” value (ABCB1 at the BBB; homozygous Abcb1a/b(-/-) knockout mice) is listed as 2.8 fold.
For `CN(C)C(=O)C(CCN1CCC(O)(c2ccc(Cl)cc2)CC1)(c1ccccc1)c1ccccc1` [loperamide], the “change in brain distribution in triple transgenic AD mice (APPswe, PS-1M146V, tauP301L)” value (ABCB1 [3]) is listed as “no changes”.
With `COc1cc2c(cc1OC)CN(CCc1ccc(NC(=O)c3cc(OC)c(OC)cc3NC(=O)c3cnc4ccccc4c3)cc1)CC2` [[^11C]tariquidar] the “percentage increase in Kp,brain following ABCG2 inhibition” value (ABCG2 at the mouse BBB [4]; APP/PS1-21 mice, cerebellum) was 36–52%, the “change in Kp,brain after partial ABCG2 inhibition” value (ABCG2 at the mouse BBB [4]; cerebellum, APP/PS1-21 mice) was “significantly increased” and the “change in Kp,brain after partial ABCG2 inhibition” value (ABCG2 at the mouse BBB [4]; cerebellum, wild-type mice) was “not in wild-type mice”. For the same compound, the “change in Kp,brain after partial ABCG2 inhibition” value (ABCG2 at the mouse BBB [4]; hippocampus and cortex, both mouse strains) was “significantly higher”, the “percentage increase in Kp,brain following ABCG2 inhibition” value (ABCG2 at the mouse BBB [4]; wild-type mice, cerebellum) was 26–41% and the “maximum brain uptake, Kp,brain” value (ABCG2 at the mouse BBB [5]) was “approximately 15”.
